The test system of assay [1] is water-injected oocytes. Nature of the assay: 22Na+ uptake in water-injected Xenopus laevis oocytes (control). Particulars: in the presence of 300 μM DIDS, mean ± SE, n=19, 1.6±0.3 in the absence of DIDS. The format is cell-based. The method, then:
(§1) The coding sequence of NCBE in pSD5 was linearized by digestion with FspI and in vitro transcribed with SP6 RNA polymerase as previously described (Wang, C -Z. et al., Biochem. Biophys. Res. Commun., 220:196-202(1996)). Defolliculated oocytes were injected with NCBE cRNA (50 nl, 0.5 μg/μl) or water and incubated in 1×MBS medium (88 mM NaCl, 1 mM KCl, 0.8 mM MgCl2, 0.4 mM CaCl2, 0.3 mM Ca(NO3)2, 2.4 mM NaHCO3 and 7.5 mM Tris, pH 7.4) for 3-5 days at 18° C. before the studies. The oocytes were preincubated for one hr at 18° C. in the standard solution (100 mM NaCl, 2 mM KCl, 1 mM MgCl2, 1 mM CaCl2, and 8 mM NaHCO3, pH 7.4).
(§2) For studies of dependency on extracellular Na^+concentration, the oocytes were then incubated in 1.4 ml of either 1, 10, 30 or 100 mM Na^+solution bubbled with 1.5% CO2, pH 7.4 with 0.074 MBq of ^22Na+ (NEN™ Life Science Products, Boston, Mass.). In each solution, the Na^+in the standard solution was substituted with an equal molar amount of choline. A ten μl aliquot was removed from the incubation solution for later determination of ^22Na^+-specific activity. […]
(§3) The present inventors also examined the effect of DIDS, an inhibitor of anion-transporter, on ^22Na^+uptake. Expression was assessed in the absence or presence of 0.3 mM DIDS. […]

Assay [2] addresses T1, NCBE (Na+-driven Cl-/HCO3- exchanger) (Mus musculus, UniProt Q5DTL9).
T1 construct: expressed in transfected cells; host or cells: Xenopus laevis oocytes injected with NCBE cRNA (pSD5, SP6 transcript)
T1 sequence (Q5DTL9 1-1088 isoform Q5DTL9-2): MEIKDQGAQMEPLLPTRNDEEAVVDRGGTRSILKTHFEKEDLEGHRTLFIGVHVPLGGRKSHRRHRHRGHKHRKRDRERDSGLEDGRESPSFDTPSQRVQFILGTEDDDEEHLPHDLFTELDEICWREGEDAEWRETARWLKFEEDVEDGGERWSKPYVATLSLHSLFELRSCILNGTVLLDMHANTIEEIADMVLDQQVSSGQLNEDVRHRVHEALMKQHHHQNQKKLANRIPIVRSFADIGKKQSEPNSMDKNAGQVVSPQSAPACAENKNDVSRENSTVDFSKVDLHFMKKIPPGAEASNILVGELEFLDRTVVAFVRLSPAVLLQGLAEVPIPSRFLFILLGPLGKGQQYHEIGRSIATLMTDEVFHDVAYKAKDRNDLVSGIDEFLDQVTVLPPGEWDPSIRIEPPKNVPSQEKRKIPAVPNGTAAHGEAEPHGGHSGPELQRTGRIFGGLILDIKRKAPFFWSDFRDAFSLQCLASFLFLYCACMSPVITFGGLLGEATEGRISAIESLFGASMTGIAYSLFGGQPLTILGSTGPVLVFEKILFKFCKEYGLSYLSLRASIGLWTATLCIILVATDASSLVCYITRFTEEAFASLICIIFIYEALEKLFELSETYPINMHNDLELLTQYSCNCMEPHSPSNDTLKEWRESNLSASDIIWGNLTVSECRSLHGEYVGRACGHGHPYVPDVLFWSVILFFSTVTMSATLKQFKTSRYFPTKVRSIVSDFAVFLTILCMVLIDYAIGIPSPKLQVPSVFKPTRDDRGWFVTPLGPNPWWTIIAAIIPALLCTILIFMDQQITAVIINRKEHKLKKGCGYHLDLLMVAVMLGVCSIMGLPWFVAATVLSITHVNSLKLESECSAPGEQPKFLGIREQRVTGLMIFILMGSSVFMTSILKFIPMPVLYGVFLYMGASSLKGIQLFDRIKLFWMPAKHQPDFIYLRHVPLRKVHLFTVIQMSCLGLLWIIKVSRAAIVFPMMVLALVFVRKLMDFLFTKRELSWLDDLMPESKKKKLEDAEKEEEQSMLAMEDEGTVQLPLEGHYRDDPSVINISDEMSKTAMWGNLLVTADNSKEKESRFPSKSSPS
Nature of the assay: 22Na+ uptake in NCBE cRNA-injected Xenopus laevis oocytes. It is filed as cell-based. The method, then:
as §1, §2, §3

The structures appear in SMILES notation.

Consider `O=S(=O)(O)c1cc(N=C=S)ccc1C=Cc1ccc(N=C=S)cc1S(=O)(=O)O` [DIDS, 4,4′-diisothiocyanostilbene-2,2′-disulfonic acid], for which the “22Na+ uptake” value in assay [1] was 2.1±0.4 nmol/oocytes/hour; in assay [2] (NCBE cRNA-injected oocytes, in the presence of 300 μM DIDS, 15 min, standard solution, mean ± SE, n=14, 31.4±2.1 in the absence of DIDS), 6.0±0.7 nmol/oocyte/hour. In addition, the “effect on 22Na+ uptake by NCBE” value in assay [2] (300 μM DIDS, NCBE cRNA-injected oocytes (FIG. 5)) is “partially inhibit”.
